Literature values, collected in patent CN105130966A, “炔基化合物及其使用方法和用途” (Add And Open Up Scientific Co, priority 2014, dated 2015).

Assays:
[1] = system: any protein kinase tested (试验的任何蛋白激酶); conditions: Cell, 2006, 125, 733-747
PI3Kδ = PI3Kδ (Mus musculus, UniProt O35904); conditions: ovalbumin-induced airway inflammation; FASEB, 2006, 20, 455-465
PI3Kδ, sequence (O35904 whole entry): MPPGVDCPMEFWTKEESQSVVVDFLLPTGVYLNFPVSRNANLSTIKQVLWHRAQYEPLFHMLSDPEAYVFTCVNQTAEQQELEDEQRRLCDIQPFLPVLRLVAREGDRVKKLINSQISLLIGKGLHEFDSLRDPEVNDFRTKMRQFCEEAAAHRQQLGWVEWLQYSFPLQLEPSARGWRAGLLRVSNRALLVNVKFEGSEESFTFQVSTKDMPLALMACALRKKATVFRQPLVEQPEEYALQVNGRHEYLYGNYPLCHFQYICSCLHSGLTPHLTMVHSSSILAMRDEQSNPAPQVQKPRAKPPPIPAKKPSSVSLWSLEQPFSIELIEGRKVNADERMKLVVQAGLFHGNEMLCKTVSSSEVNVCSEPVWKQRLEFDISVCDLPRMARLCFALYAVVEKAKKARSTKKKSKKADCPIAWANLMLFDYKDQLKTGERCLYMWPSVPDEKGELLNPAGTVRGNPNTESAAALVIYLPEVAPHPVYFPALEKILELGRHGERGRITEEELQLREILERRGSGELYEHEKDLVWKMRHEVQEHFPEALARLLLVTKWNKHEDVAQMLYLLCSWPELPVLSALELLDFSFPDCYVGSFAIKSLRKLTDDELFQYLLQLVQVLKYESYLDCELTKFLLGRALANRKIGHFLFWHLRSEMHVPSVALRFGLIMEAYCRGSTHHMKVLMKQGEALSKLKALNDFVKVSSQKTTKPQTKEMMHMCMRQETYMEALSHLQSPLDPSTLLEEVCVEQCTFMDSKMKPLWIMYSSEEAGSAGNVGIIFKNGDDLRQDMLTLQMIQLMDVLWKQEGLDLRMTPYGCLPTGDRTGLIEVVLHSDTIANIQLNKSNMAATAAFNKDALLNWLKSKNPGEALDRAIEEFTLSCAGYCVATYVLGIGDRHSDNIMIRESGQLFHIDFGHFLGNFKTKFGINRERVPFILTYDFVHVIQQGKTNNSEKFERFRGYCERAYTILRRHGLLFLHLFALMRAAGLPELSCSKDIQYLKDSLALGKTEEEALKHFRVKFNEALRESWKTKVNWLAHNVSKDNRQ
PI3Kδ, sequence (P26450 whole entry partner): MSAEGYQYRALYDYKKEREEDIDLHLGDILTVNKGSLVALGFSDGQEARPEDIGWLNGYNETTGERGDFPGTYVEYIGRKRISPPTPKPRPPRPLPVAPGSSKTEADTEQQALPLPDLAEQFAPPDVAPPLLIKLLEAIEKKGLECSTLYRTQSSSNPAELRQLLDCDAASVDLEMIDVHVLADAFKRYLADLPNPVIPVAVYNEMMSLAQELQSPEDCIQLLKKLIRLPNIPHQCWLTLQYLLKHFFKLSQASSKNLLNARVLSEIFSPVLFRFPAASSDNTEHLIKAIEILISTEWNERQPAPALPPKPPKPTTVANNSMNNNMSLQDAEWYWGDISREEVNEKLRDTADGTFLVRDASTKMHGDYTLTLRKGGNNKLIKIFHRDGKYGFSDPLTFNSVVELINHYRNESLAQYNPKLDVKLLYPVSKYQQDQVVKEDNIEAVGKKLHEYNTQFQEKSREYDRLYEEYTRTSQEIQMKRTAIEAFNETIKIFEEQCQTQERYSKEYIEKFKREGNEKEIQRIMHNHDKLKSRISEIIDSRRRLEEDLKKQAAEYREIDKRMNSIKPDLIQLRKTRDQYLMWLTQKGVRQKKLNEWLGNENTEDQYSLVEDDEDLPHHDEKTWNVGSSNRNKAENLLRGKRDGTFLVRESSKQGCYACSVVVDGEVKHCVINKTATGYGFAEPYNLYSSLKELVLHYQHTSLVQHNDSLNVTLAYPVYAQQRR

## Cc1ccccc1-n1c(Cn2cnc3c(N)ncnc32)nc2cccc(C)c2c1=O [IC87114]
[1]
  activity: 不显示活性
PI3Kδ
  inflammation: 显著改善炎症
